Results on one compound are retold here after patent US20070066608A1, “Novel indole derivatives with an improved antipsychotic activity” (priority 2003, published 2007).

Where only a bound is given, the exact number is not on record here.

The target of assay [1] is T1, Human Dopamine D2L receptor (Homo sapiens, UniProt P14416).
T1 construct: expressed in transfected cells; host or cells: CHO cells
The experiment in a line: Radioligand binding experiment for dopamine D2 receptor (hD2), [3H]Spiperone. The conditions noted are these: membranes of D2L receptor-transfected CHO cells, read-out: pIC50 D2 (converted). On the procedure:
(§1) The interaction of the compounds of Formula (I) with dopamine-receptors, h5HT-transporter and h5HT1A receptor was assessed in in vitro radioligand binding experiments. In general, a low concentration of a radioligand with a high binding affinity for a particular receptor or transporter is incubated with a sample of a tissue preparation enriched in a particular receptor or transporter or with a preparation of cells expressing cloned human receptors in a buffered medium. During the incubation, the radioligand binds to the receptor or transporter. When equilibrium of binding is reached, the receptor bound radioactivity is separated from the non-bound radioactivity, and the receptor- or transporter-bound activity is counted The interaction of the test compounds with the receptor is assessed in competition binding experiments. Various concentrations of the test compound are added to the incubation mixture containing the receptor- or transporter preparation and the radioligand. The test compound in proportion to its binding affinity and its concentration inhibits binding of the radioligand.
Human Dopamine D2L receptor-transfected CHO cells were collected by scraping into ice-cold Tris-HCl buffer ([…], pH 7.4). The suspension was centrifuged (23 500×g, 10 min, 4° C.) and pellets stored at −70° C. until require. They were then thawed and briefly homogenised using an Ultra-Turrax T25 homogeniser prior to dilution to an appropriate protein concentration optimised for specific and non-specific binding. [^3H]Spiperone (NEN, specific activity˜70 Ci/mmol) was diluted in Tris-HCl assay buffer containing NaCl, CaCl2, MgCl2, KCI (50, 120, 2, 1, and 5 mM respectively, adjusted to pH 7.7 with HCl) at a concentration of 2 nmol/L. Prepared radioligand (50 μl) was then incubated (30 min, 37° C.) with membrane preparations pre-diluted to an appropriate protein concentration (400 μl), and with 50 μl of either the 10% DMSO control, Butaclamol (10^−6 mol/L final concentration), or compound of interest. Membrane-bound activity was detected by filtration through a Packard Filtermate harvester onto Unifilterplates, washing with ice-old Tris-HCl buffer (50 mM; pH8.0; 3×4 ml). Filters were allowed to dry before adding scintillation fluid and counting in a Topcount scintillation counter. % Specific bound and competition binding curves were calculated using S-Plus software (Insightful).

The next assay deals with T2, human 5HT transporter (Homo sapiens, UniProt P31645).
T2 construct: host or cells: HEK cells
Briefly: Binding experiment for 5-HT transporter, [3H]Paroxetine. The conditions noted are these: 5HT transporter-transfected HEK cells, [3H]Paroxetine binding; read-out: pIC50 5HT reuptake inhibition (converted). As for the experimental part: as §1
Frozen human 5HT transporter-transfected HEK cells (Perkin Elmer, Brussels) were thawed and briefly homogenised using an Ultra-Turrax T25 homogeniser prior to dilution to an appropriate protein concentration optimised for specific and non-specific binding. [^3H]Paroxetine (NEN, specific activity 20 Ci/mmol) was diluted in Tris-HCl assay buffer containing NaCl and KCl (50 mM 120 mM and 5 mM, respectively; pH 7.4) at a concentration of 5 nmol/L. Prepared radioligand (25 μl) was then incubated (60 min, 25° C.) with membrane preparations (200 μl) and with 25 μl of either 10% DMSO control, Imipramine (10^−6 mol/L final concentration), or compound of interest Membrane-bound activity was detected by filtration through a Packard Filtermate harvester onto Unifilterplates pre-soaked in 0.1% PEI, washing with ice-cold assay buffer (3×4 ml). Filters were dried prior to addition of scintillation fluid and then counting in a Topcount scintillation counter. % Specific bound and competition binding curves were calculated using S-Plus software (Insightful).

Assay [2] addresses T3, Human Dopamine D3 receptor (Homo sapiens, UniProt P35462).
T3 construct: expressed in transfected cells; host or cells: CHO cells
The experiment in a line: Radioligand binding experiment for dopamine D3 receptor (hD3), [125I]Iodosulpride. The conditions noted are these: membranes of D3 receptor-transfected CHO cells, read-out: pIC50 D3 (converted). As for the experimental part: as §1
Human Dopamine D3 receptor-transfected CHO cells were collected by scraping into ice-cold Tris-HCl buffer (50 mM, pH 7.4). The suspension was centrifuged (23 500×g, 10 min, 4° C.) and pellets stored at −70° C. until required. They were then thawed and briefly homogenised using an Ultra-Turrax T25 homogeniser prior to dilution to an appropriate protein concentration optimised for specific and non-specific binding. [^125]Iodosulpride (Amersham, specific activity 2000 Ci/mmol) was diluted in Tris-HCl assay buffer containing NaCl, CaCl2, MgCl2, KCl and BSA (50, 120, 2, 1, 5 mM, 0.1% respectively, adjusted to pH 7.7 with HCl) at a concentration of 2 nmol/L. Prepared radioligand (20 μl) was incubated (60 min, RT) and with 20 μl of either the 10% DMSO control, Risperidone (10^−6 mol/L final concentration), or compound of interest, then with membrane preparations (80 μl). Overnight incubation followed after addition of WGA-coated PVT SPA beads (250 μl; Amersham) and membrane-bound counts measured in a Wallac Microbeta. % Specific bound and competition binding curves were calculated using S-Plus software (Insightful).

T3 sequence (P35462 whole entry): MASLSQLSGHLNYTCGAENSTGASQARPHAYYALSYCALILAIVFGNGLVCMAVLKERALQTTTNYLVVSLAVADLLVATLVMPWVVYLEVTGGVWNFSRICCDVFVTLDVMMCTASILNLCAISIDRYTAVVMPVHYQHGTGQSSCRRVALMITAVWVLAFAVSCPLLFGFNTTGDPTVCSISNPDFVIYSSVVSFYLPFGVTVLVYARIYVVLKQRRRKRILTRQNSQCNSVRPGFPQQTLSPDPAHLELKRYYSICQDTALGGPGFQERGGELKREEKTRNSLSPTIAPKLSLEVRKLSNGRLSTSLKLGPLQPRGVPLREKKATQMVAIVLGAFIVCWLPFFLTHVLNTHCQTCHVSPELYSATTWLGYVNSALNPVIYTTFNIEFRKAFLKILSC
T1 sequence (P14416 whole entry): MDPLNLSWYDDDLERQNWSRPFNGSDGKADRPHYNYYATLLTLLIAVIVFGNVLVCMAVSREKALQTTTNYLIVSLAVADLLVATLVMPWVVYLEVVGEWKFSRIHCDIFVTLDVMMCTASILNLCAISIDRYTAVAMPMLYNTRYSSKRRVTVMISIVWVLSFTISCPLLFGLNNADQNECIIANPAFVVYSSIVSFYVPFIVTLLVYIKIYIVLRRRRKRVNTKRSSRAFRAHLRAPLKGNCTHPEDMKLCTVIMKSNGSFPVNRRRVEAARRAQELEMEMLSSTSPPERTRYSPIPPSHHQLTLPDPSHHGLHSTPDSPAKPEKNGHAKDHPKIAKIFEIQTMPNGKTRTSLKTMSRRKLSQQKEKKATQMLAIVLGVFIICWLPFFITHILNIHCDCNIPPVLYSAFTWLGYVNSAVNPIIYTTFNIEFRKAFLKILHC
T2 sequence (P31645 whole entry): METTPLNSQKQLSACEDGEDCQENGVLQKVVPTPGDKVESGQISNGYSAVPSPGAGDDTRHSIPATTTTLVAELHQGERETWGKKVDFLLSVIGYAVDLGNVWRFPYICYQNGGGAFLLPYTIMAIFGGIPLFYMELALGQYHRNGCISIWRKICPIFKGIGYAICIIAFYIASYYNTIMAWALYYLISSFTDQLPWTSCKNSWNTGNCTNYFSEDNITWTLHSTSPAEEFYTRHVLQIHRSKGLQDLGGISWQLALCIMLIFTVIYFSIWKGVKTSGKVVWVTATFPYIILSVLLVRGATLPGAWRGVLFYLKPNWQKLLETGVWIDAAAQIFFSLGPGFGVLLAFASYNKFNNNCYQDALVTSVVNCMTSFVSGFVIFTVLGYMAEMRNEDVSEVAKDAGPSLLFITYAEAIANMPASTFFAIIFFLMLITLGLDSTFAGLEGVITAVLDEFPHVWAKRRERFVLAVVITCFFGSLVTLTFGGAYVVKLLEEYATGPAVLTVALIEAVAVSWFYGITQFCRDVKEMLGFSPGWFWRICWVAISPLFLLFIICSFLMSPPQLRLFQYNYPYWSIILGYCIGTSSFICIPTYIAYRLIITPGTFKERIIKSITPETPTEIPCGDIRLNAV

As to `Fc1ccc2[nH]cc(C3=CCN(CC4Oc5cccnc5O4)CC3)c2c1` (stereo not drawn) [Compound 7], the results for the IC50 (in assay [1]; at human 5HT transporter; in assay [2]) were 251 nM, above 1000 nM and 15.8 nM, respectively.
